Source: US11084795B2, “CFTR regulators and methods of use thereof” (The Regents of the University of California, priority 2015, dated 2021)
“Also recorded” adds a separate entry of the source.

How the values were obtained:
cellular cAMP = assay: GloSensor cAMP assay in FRT cells; assay type: cell-based, rat; details: 1c at 10 μM
Protocol: Intracellular cAMP activity was measured using a GloSensor luminescence assay (Promega Corp., Madison, Wisconson, USA). FRT null cells were stably transfected with the pGloSensor cAMP plasmid and plated onto white 96-well microplates and grown to confluence. Cells were washed three times with PBS and incubated with 5 μM CFTRact-J027 for 10 min in the absence and presence of 100 nM forskolin. cAMP was assayed according to the manufacturer's instructions.
Intracellular cAMP activity was measured using a GloSensor luminescence assay (Promega Corp., Madison, Wis., USA). FRT cells stably transfected with the pGloSensor cAMP plasmid (Promega Corp.) were cultured in white 96-well microplates (Corning Costar) overnight. Cells were then washed three times with PBS and incubated with 5 μM test compound for 10 min in the absence and presence of 100 nM forskolin.
cAMP assay. Intracellular cAMP activity was measured using a GloSensor luminescence assay (Promega Corp., Madison, Wisconson, USA). FRT null cells were stably transfected with the pGloSensor cAMP plasmid and plated onto white 96-well microplates and grown to confluence. […]
cAMP and cytotoxicity assays. Intracellular cAMP activity was measured using a GloSensor luminescence assay (Promega Corp., Madison, Wis., USA). […]

[1] = In vitro metabolic stability in mouse liver microsomes; assay type: in vitro ADME; details: mouse hepatic microsomes, NADPH
Protocol: (§1) CFTRact-J027 (5 μM) was incubated for specified times at 37° C. with mouse liver microsomes (1 mg protein/ml; Sigma-Aldrich) in potassium phosphate buffer (100 mM) containing 1 mM NADPH, as described. The mixture was then chilled on ice, and 0.5 ml of ice-cold ethyl acetate was added. Samples were centrifuged for 15 min at 3000 rpm, the supernatant evaporated to dryness, and the residue was dissolved in 100 μL mobile phase (acetonitrile:water, 3:1) for LC/MS and assayed as described above.
as §1, with “In vitro metabolic stability. CFTRact-J027” for “CFTRact-J027”
In vitro metabolic stability. Test compound (at 5 μM) was incubated for specified times at 37° C. with mouse liver microsomes (1 mg protein/ml; Sigma-Aldrich, St. Louis, Mo.) in potassium phosphate buffer containing 1 mM NADPH, as described. Following ethyl acetate extraction, non-metabolized parent compound was assayed by LC/MS.

cytoplasmic calcium = assay: Cytoplasmic calcium (Fluo-4) in FRT cells; assay type: cell-based, rat; details: 1c at 10 μM; ATP as calcium agonist
Protocol: FIGS. 23A-23D. In vitro characterization of compound 1c. FIG. 23A. Cellular cAMP in FRT cells in response to incubation for 10 min with […] 1c without or with 90 nM forskolin (fsk). Positive controls included fsk (100 nM and 20 pM) and fsk+IBMX (20 pM+100 pM) (mean±S.E.M., n=4). FIG. 23B. Cytoplasmic calcium measured by Fluo-4 fluorescence. FRT cells were pretreated for 5 min with 10 pM 1c (or control), with 100 pM ATP added as a calcium agonist as indicated. FIG. 23C. […] FIG. 23D.

[2] = test system: calcium-activated chloride channels in HT-29 cells; assay: CaCC activity in HT-29 cells expressing YFP; assay type: cell-based; details: 1c at 10 μM
TMEM16A = TMEM16A activity in FRT cells expressing YFP and TMEM16A; assay type: cell-based; details: 1c at 10 μM
loperamide-treated mice = assay: Loperamide-induced mouse model of constipation; details: 1c orally 1 h prior to loperamide, 3-h stool
human wildtype CFTR [3] = target: T1, human wildtype CFTR (Homo sapiens, UniProt P13569); assay: Short-circuit current (Isc) in FRT cells expressing human wild-type CFTR; details: read-out: EC50 for CFTR activation; FRT cells, wild-type CFTR, short-circuit current
T1 sequence (P13569 whole entry): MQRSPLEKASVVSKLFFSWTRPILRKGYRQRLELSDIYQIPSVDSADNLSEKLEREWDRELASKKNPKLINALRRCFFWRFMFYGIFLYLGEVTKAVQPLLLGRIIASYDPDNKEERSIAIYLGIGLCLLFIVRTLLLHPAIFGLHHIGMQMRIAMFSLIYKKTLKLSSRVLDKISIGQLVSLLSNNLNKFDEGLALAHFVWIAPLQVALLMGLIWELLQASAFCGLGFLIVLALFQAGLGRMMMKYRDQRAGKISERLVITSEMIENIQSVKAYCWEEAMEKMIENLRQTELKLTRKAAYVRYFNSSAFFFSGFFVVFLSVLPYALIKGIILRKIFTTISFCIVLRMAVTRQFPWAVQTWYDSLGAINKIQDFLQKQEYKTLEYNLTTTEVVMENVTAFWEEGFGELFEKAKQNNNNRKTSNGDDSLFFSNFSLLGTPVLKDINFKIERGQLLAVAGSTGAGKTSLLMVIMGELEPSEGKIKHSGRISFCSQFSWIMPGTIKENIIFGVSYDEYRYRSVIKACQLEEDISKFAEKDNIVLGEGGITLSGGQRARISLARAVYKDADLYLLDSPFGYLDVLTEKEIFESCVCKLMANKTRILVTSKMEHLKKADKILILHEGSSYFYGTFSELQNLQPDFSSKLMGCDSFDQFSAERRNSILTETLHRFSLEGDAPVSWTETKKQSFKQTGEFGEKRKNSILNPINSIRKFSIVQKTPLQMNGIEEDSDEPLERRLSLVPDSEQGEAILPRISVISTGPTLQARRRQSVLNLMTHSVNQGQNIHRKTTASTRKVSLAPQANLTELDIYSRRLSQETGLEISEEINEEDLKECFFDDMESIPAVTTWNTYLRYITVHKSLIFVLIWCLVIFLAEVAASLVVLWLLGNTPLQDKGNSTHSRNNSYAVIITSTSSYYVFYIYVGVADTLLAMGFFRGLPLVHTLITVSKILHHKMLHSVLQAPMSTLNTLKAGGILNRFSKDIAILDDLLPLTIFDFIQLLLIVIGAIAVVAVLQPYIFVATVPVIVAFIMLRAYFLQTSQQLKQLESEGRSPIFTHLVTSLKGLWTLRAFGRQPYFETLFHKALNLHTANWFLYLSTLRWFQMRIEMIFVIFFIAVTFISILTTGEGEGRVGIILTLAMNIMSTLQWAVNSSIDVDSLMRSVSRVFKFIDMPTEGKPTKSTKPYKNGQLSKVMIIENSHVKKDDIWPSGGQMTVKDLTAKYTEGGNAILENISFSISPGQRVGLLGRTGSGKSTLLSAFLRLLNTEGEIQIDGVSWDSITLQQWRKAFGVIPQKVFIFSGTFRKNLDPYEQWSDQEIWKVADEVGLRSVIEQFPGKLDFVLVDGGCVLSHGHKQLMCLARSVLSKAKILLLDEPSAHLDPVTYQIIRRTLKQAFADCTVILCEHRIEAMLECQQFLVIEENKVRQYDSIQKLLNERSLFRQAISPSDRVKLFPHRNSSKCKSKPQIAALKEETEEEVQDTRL

human wildtype CFTR [4] = target: T1, human wildtype CFTR; assay: Fluorescence plate reader assay of iodide influx in FRT cells co-expressing CFTR and YFP halide sensor

compound metabolized at 60 min [1]: < 40% | EC50 (human wildtype CFTR [3]): 21 nM | increased potency compared to 4 (human wildtype CFTR [4]; plate reader assay): ~10 fold | EC50 (human wildtype CFTR [4]; read-out: EC50, variation in the 3-aryl ring, plate reader assay): 9 nM | EC50 (human wildtype CFTR [4]; synthesized compounds, full dose-response study, 125 nM forskolin): 9 nM
SMILES: O=c1c(-c2cccc([N+](=O)[O-])c2)nc2ccccc2n1Cc1ccccc1 [Compound 1c, 1-Benzyl-3-(3-nitrophenyl)quinoxalin-2(1H)-one]
effect on cellular cAMP level (cellular cAMP): did not affect the cellular cAMP level | cytoplasmic calcium (cytoplasmic calcium): nor did it elevate cytoplasmic calcium or inhibit the ATP-stimulated elevation in cytoplasmic calcium | activation or inhibition of calcium-activated chloride channels in HT-29 cells [2]: no activation (iodide addition) or inhibition (iodide+ATP addition); also recorded: neither inhibited nor activated | activation or inhibition of TMEM16A (TMEM16A): no activation (iodide addition) or inhibition (iodide+ATP addition); also recorded: neither inhibited nor activated | stool weight, pellet number and hydration (loperamide-treated mice): fully normalized stool weight, pellet number and hydration
